Test results: patent US20240254119A1 (THIRD HARMONIC BIO, INC., priority 2022, published 2024)

Assays:
[1] = system: KIT phosphorylation in M-07e cells; assay: Cell-based KIT phosphorylation in M-07e cells by pKIT ELISA; set-up: species or system human; settings: SCF stimulation
How it was run: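 Serum-starved M-07e cells (1 × 10^6/mL, overnight) were treated with compounds (8-point 3-fold series from 1 uM) for 2 h at 37 °C, then stimulated with 100 ng/mL SCF for 5 min. Lysate phospho-KIT was captured on anti-phospho-CD117 plates, detected with anti-pY-HRP, and read at 450 nm against a pc-KIT standard curve.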

[2] = system: CYP3A4; assay: Hepatocyte CYP induction assay, CYP3A4 gene expression; assay type: in vitro ADME; settings: human hepatocytes
How it was run: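 Cryopreserved human hepatocytes in Matrigel sandwich culture were dosed in 0.1% DMSO for 48 h at 37 °C, with medium and compound renewed at 24 h, in triplicate; rifampicin was the positive control. CYP3A4 mRNA was measured by qPCR, normalized to 18S rRNA, and fold change (2^−ΔΔCt vs vehicle) […].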

Row | Compound | IC50 [1] [nM] | CYP 3A4 induction mRNA: Mean fold at 10 μM ([2]; donor five) | CYP 3A4 induction mRNA: Mean fold at 10 μM ([2]; donor four) | CYP 3A4 induction mRNA: Mean fold at 10 μM ([2]; donor one) | CYP 3A4 induction mRNA: Mean fold at 10 μM ([2]; donor three) | IC50 ([1]; Homo sapiens) [nM]
1 | Cc1ccc(-c2noc([C@H]3C[C@@H]3F)n2)cc1NC(=O)c1cnc2cc(OC(C)C)ccn12 [Compound I-88] | ≤ 50 | + (induction fold of less than or equal to 2-fold) | + (induction fold of less than or equal to 2-fold) | + (induction fold of less than or equal to 2-fold) |  | 
2 | Cc1ccc(-c2noc([C@H]3CC(F)(F)CN3)n2)cc1NC(=O)c1cnc2ccccn12 [Compound I-359] | 50 to 500 |  | + (induction fold of less than or equal to 2-fold) |  |  | 
3 | Cc1ccc(-c2noc(CC(O)C(F)F)n2)cc1NC(=O)c1cnc2ccccn12 (stereo not drawn) [Compound I-114] | ≤ 50 | + (induction fold of less than or equal to 2-fold) | + (induction fold of less than or equal to 2-fold) |  | + (induction fold of less than or equal to 2-fold) | 
4 | Cc1ccc(-c2noc(C3COC3)n2)cc1NC(=O)c1cnc2ccccn12 [Compound I-138] | ≤ 50 |  | + (induction fold of less than or equal to 2-fold) |  |  | 
5 | Cc1ccc(-c2noc([C@H]3C[C@@H]3F)n2)cc1NC(=O)c1cnc2cc(COCC(C)(C)O)ccn12 [Compound I-71, N-[5-[5-[(1R,2S)-2-fluorocyclopropyl]-1,2,4-oxadiazol-3-yl]-2-methyl-phenyl]-7-[(2-hydroxy-2-methyl-propoxy)methyl]imidazo[1,2-a]pyridine-3-carboxamide] |  | + (induction fold of less than or equal to 2-fold) | + (induction fold of less than or equal to 2-fold) | + (induction fold of less than or equal to 2-fold) |  | ≤ 50
6 | COC(=O)N1CC(c2nc(-c3ccc(C(F)F)c(NC(=O)c4cnc5ccccn45)c3)no2)C1 [Compound I-225] | ≤ 50 |  | +++ (induction fold of greater than 3-fold to less than or equal to 10-fold) |  |  | 
